Test results published in patent US9321728B2, “Beta-alanine derivatives, pharmaceutically acceptable salts thereof, and pharmaceutical composition comprising same as active ingredient” (KOREA RESEARCH INSTITUTE OF CHEMICAL TECHNOLOGY, priority 2012, dated 2016).

Target: human DGAT1 (Homo sapiens (Human), UniProt O75907)
Test: Human DGAT1 enzyme inhibition test (phospholipid FlashPlate, [14C]decanoyl-CoA)
Format: biochemical
Details: for IC50: lysate of Hep3B cells over-expressing human DGAT1 (5 μg/well), didecanoyl glycerol and [14C]decanoyl-CoA substrates; for in vitro inhibition activity with respect to DGAT1: verbal summary of Table 1
Method: The cells were treated with 200 μg/ml G-418(Sigma) once every three days for 4 weeks to over-express the human DGAT1, thereby obtaining a stabilized cell line. The over-expressed cells were put into a homogenization buffer [250 mM sucrose, 10 mM Tris-HCl (pH 7.4), 1 mM EDTA] and lysed by a homogenization apparatus. Then, centrifugation was performed with 600×g for 15 minutes to remove cell residue, and the obtained cells were used for an enzyme inhibition test. Human DGAT-1 and mouse DGAT activity was determined as follows: Assay buffer [20 mM HEPES (pH 7.4), 100 mM MgCl2, 0.04% BSA] containing 500 μM of enzyme substrate (didecanoyl glycerol) and 7.5 μM radiolabeled acyl-CoA substrate ([^14C]decanoyl-CoA) was added to each well of a phospholipid FlashPlate (PerkinElmer Life Sciences). A small aliquot of lysate (5 μg/well) or mouse liver microsome (0.1 mg/well) was added to start the reaction, which was allowed to proceed in a 20° C. bath for 1 hour. and maintained overnight at room temperature. Next day, measurement was performed by Wallac 1450 Microbeta Trilux Liquid Scintillation Counter and Luminometer (PerkinElmer Life Science). […] A calculation method of inhibition degree (%) is as follows.

Sequence of human DGAT1 (O75907 whole entry): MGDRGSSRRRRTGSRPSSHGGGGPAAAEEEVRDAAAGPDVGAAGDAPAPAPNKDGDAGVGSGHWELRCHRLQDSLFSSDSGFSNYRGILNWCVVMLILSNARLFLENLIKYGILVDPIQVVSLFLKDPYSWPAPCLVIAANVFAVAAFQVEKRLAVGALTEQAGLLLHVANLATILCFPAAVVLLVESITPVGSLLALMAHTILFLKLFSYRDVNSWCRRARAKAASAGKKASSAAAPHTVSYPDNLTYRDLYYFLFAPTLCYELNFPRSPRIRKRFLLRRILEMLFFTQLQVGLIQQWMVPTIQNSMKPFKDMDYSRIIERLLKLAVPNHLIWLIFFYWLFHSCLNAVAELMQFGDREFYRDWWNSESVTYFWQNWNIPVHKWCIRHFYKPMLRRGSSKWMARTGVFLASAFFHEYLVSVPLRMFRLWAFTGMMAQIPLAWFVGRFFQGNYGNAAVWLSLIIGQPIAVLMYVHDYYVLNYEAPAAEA

Structure (SMILES)	IC50	in vitro inhibition activity with respect to DGAT1
Cc1ccccc1-c1nc(C(=O)NCCC(=O)Nc2ccc([C@H]3CC[C@H](CC(=O)O)CC3)cc2)c(C(F)(F)F)o1 [Compound 21, trans-[4-(4-{3-[(2-o-tolyl-5-trifluoromethyloxazole-4-carbonyl)amino]propionylamino}phenyl)cyclohexyl]acetic acid]	< 100 nM	–
O=C(O)C[C@H]1CC[C@H](c2ccc(NC(=O)CCNC(=O)c3nc(-c4ccccc4)oc3C(F)(F)F)cc2)CC1 [Compound 22, sodium; trans-[4-(4-{3-[(2-phenyl-5-trifluoromethyloxazole-4-carbonyl)amino]propionylamino}phenyl)cyclohexyl]acetate]	< 500 nM	–
O=C(O)C[C@H]1CC[C@H](c2ccc(NC(=O)CCNC(=O)c3nc(-c4ccc(Br)cc4)oc3C(F)(F)F)cc2)CC1 [Compound 27, trans-{4-[4-(3-{[2-(4-bromophenyl)-5-trifluoromethyloxazole-4-carbonyl]amino}propionylamino)phenyl]cyclohexyl}acetic acid]	< 100 nM	–
Cc1oc(-c2ccccc2)nc1C(=O)NCCC(=O)Nc1ccc([C@H]2CC[C@H](CC(=O)O)CC2)cc1 [Compound 31, trans-[4-(4-{3-[(5-methyl-2-phenyloxazole-4-carbonyl)amino]propionylamino}phenyl)cyclohexyl]acetic acid]	< 100 nM	–
Cc1nc(-c2ccccc2)sc1C(=O)NCCC(=O)Nc1ccc([C@H]2CC[C@H](CC(=O)O)CC2)cc1 [Compound 33, trans-[4-(4-{3-[(4-methyl-2-phenylthiazole-5-carbonyl)amino]propionylamino}phenyl)cyclohexyl]acetic acid]	< 500 nM	–
O=C(O)C[C@H]1CC[C@H](c2ccc(NC(=O)CCNC(=O)c3sc(-c4ccccc4)nc3C(F)(F)F)cc2)CC1 [Compound 37, trans-[4-(4-{3-[(2-phenyl-4-trifluoromethylthiazole-5-carbonyl)amino]propionylamino}phenyl)cyclohexyl]acetic acid]	< 100 nM	–

Now from value to molecule:

IC50	in vitro inhibition activity with respect to DGAT1	Structure (SMILES)
< 50 nM	good to excellent	CCOc1ccc(C(=O)NCCC(=O)Nc2ccc([C@H]3CC[C@H](CC(=O)O)CC3)cc2)cc1 [Compound 4, trans-(4-{4-[3-(4-ethoxybenzoylamino)propionylamino]phenyl}cyclohexyl)acetic acid]
< 50 nM	good to excellent	O=C(O)C[C@H]1CC[C@H](c2ccc(NC(=O)CCNC(=O)c3nc(-c4ccccc4)oc3C(F)(F)F)cc2)CC1 [Compound 6, trans-[4-(4-{3-[(2-Phenyl-5-trifluoromethyloxazole-4-carbonyl)amino]propionylamino}phenyl)cyclohexyl]acetic acid]
< 100 nM	–	O=C(O)C[C@H]1CC[C@H](c2ccc(NC(=O)CCNC(=O)c3cn(-c4ccccc4)nc3C(F)(F)F)cc2)CC1 [Compound 7, trans-[4-(4-{3-[(1-phenyl-3-trifluoromethyl-1H-pyrazole-4-carbonyl)amino]propionylamino}phenyl)cyclohexyl]acetic acid]
< 50 nM	good to excellent	O=C(O)C[C@H]1CC[C@H](c2ccc(NC(=O)CCNC(=O)c3nc(-c4ccccc4Cl)oc3C(F)(F)F)cc2)CC1 [Compound 11, trans-{4-[4-(3-{[2-(2-chlorophenyl)-5-trifluoromethyloxazole-4-carbonyl]amino}propionylamino)phenyl]cyclohexyl}acetic acid]
< 100 nM	–	O=C(O)C[C@H]1CC[C@H](c2ccc(NC(=O)CCNC(=O)c3oc(-c4ccccc4)nc3C(F)(F)F)cc2)CC1 [Compound 15, trans-[4-(4-{3-[(2-phenyl-4-trifluoromethyloxazole-5-carbonyl)amino]propionylamino}phenyl)cyclohexyl]acetic acid]
< 100 nM	–	Cc1ccc(-c2nc(C(=O)NCCC(=O)Nc3ccc([C@H]4CC[C@H](CC(=O)O)CC4)cc3)c(C(F)(F)F)o2)cc1 [Compound 19, trans-[4-(4-{3-[(2-p-tolyl-5-trifluoromethyloxazole-4-carbonyl)amino]propionylamino}phenyl)cyclohexyl]acetic acid]
